Data on 1 compound can be found in patent US20090305954A1, “HISTIDINE-CONTAINING DIASTEREOMERIC PEPTIDES AND USES THEREOF” (Yeda Research and Development Co. Ltd., priority 2005, published 2009).

One series concerns 22RV1 human PC cells. In words: XTT proliferation (cytotoxicity) assay, 22RV1. The format is cell-based. Here is the method: (§1) The CL1 human prostate carcinoma (PC) cell line is an androgen-independent (AI) subclone of LNCaP cell line, which was generated by culturing androgen-dependent (AD) LNCaP cells in charcoal-stripped, […], as described (Patel et al. 2000). 22RV1 human PC cells are AI sub-clones of the AD prostatic adenocarcinoma CWR22 xenograft (Sramkoski et al. 1999). CL1 and 22RV1 (ATCC, USA) were grown in RPMI-1640 supplemented with 10% FCS (Biological Industries, Beit Haemek, Israel). PC3 and DU145 are androgen-insensitive (AI) (non-responsive), invasive human prostate cancer cell lines. NIH-3T3 mouse fibroblast cell lines (ATCC, USA) were grown in DMEM supplemented with 10% BS. Murine Lewis lung carcinoma (LLC) cell lines were also grown in DMEM medium supplemented with 10% fetal calf serum and antibiotics under the same conditions as above.
(§2) A 96-well plate (Falcon) was used for the XTT proliferation assay. Cancer cells were grown for 24 hours (day 1) in RPMI-1640 medium ([…] cells/100 μl for LLC, CL1, 22RVI, DU 145 and PC3, respectively) supplemented with 10% fetal calf serum and antibiotics, at 37° C., in humidified atmosphere at 5% CO2 and 95% air, resulting in growth medium pH of 7.4. NIH-3T3 fibroblast cells (1×10^4 cells/100 μl) were grown in DMEM medium supplemented with 10% bovine calf serum and antibiotics under the same conditions as described above for the cancerous cells. Wells in the last two rows served as blanks (medium only, for measuring the background color of the medium) and 100% survival controls (cells and medium only without treatment), respectively.
(§3) In day 2, the peptides were dissolved in sterile PBS to a concentration of 200 μM (or 500 μM). The medium in the assay wells was replaced with 100 μl serum free medium. For the assays at pH 6, the medium was initially concentrated (×5 or ×10) and then diluted with double distilled water and addition of sodium carbonate. Before reaching the correct dilution, the medium was adjusted to pH 6 and then more water was added to reach the final dilution. The cells were grown in physiological pH, and the acidic pH was used only during the 24 hours incubation with the peptides. A sign for the correct acidity was a light yellow color of the medium. In line A of the plate, 160 μl of serum free medium was added, if the initial peptide concentration was 500 μM.
(§4) Peptide solutions, 100 μl (or 40 μl) were added to each assay well in line A, such that the final concentration of the peptide was […] and the volume 200 μl. The medium in the wells was mixed with multichannel pipette 5 times and 100 μl of it were transferred to the next row of wells (line B), to give a peptide concentration of 50 μM. The double dilution of the peptides continued downstream the plate in the same manner. The plates were then incubated for 24 h.
(§5) In day 3, XTT reaction solution was prepared by adding to 100 μl aliquots of activation solution (sodium 3′-[1-(phenyl-aminocarbonyl)-3,4-tetrazolium]-bis(4-methoxy-6-nitro) benzene sulfonic acid hydrate and N-methyl dibenzopyrazine methyl sulfate; mixed in a proportion of 50:1) (protected from light and kept in −20° C.), the substrate. 50 μl of XTT reaction solution were added to each well and the plates were incubated for 2 hours (37° C. and 5% CO2+95% air. In cases the incubation was not enough for the creation of the color, it was extended for up to 24 hours). The optical density was read at wavelength of 450 nm in an ELISA plate reader. Cell viability was determined relative to the control and final results were recorded. The results were confirmed using replications in at least three independent experiments. The LC50 for each peptide was obtained from the curve of cell viability versus concentration of peptide and taken from the concentration at which cell viability was 50%. The data shown in Table 1 are for only one experiment, but representative of all replications.

For series [1], the system named is DU145 human prostate cancer cell line. In words: XTT proliferation (cytotoxicity) assay, DU145. The format is cell-based. Here is the method:
as §1
The anticancer activity of the diastereomers 1, 5 and 11-16, 36-39, 42 and 44 was examined against human CL1 prostate cancer, murine LLC (Lewis lung carcinoma), DU 145 and PC3 cell lines. The cell selectivity of the diastereomeric peptides was also studied by examining their effect on NIH-3T3 normal mouse fibroblasts cell line.
as §2, §3, §4
as §5, with “The LC50 for each peptide was obtained from the curve of cell viability versus concentration of peptide and taken from the concentration at which cell viability was 50%. The data shown in Table 1 are for only one experiment, but representative of all replications.” left out

Series [2] relates to 22RV1 human PC cells xenograft. Description: Inhibition of tumor growth in human prostate cancer xenografts, 22RV1. The note with it: 22RV1 xenograft. The format is in vivo, nude male mice. The method, then:
(i) Inhibition of tumor growth in human prostate cancer xenografts. Subcutaneouse (s.c.) implantation of human PC cells in mice was done as previously described in Gavish et al. (Gavish et al. 2002). Briefly, 0.1 ml AI CL1 or 22RV1 human PC cells (5×10^6 cells) in Matrigel were inoculated s.c. into the dorsal side of five to six week-old nude male mice weighing 20-25 g (Harlen Co., Israel). Two weeks after cell implantation, when the tumors diameter reached ≧5 mm (denoted as day 1), the diastereomer 13 and its all L-amino acid analog peptide (at 1 mg/kg, 0.1 mM), or vehicle (PBS, pH=7.4) were injected intratumorally (dosing volume of 2.5 ml/kg) three times a week for a total of 9 doses. Tumor size was measured by a caliper and recorded twice a week during a period of 28 days. Mice were weighed and tumor weight (mg) was estimated by using the formula of length×width×depth×0.52 in mm^3, assuming the specific gravity to be 1. At the end of the treatment, the mice were killed, and the tumors were removed, photographed, and weighed. The animal experimentation was conducted according to the rules of the Institutional Animal Care and Use Committee.
Serum PSA levels. Four weeks after the first treatment, blood was withdrawn from the 22RV1-inoculated mice in order to determine the level of prostate specific antigen (PSA). The blood samples were taken directly to heparin containing tubes, centrifuged, and the supernatants were stored at −20° C. The CanAg PSA EIA kit (CanAg Diagnostics) was used to determine the total PSA in the mice plasma (Gavish et al., 2002). Tumor weight and PSA levels, represented as the mean±SE, were calculated from the raw data and then subjected to Student's t test. A value of P<0.05 was considered as statistically significant.

Square brackets hold non-standard residues; d marks the D form. Peptide text beside a SMILES is read from it.

As for `CC(C)C[C@H](NC(=O)[C@H](CC(C)C)NC(=O)[C@@H](CCCCN)NC(=O)[C@H](CC(C)C)NC(=O)[C@H](CC(C)C)NC(=O)[C@H](Cc1c[nH]cn1)NC(=O)[C@@H](CCCCN)NC(=O)[C@@H](CC(C)C)NC(=O)[C@H](CC(C)C)NC(=O)[C@@H](CCCCN)NC(=O)[C@H](Cc1c[nH]cn1)NC(=O)[C@H](CC(C)C)NC(=O)[C@@H](CC(C)C)NC(=O)[C@H](CCCCN)NC(=O)[C@@H](N)CC(C)C)C(N)=O` [Peptide 13] (H-LK[dL]LH[dK]L[dL][dK]HLL[dK]LL-NH2), the “Lethal Concentration (LC50)” value in the series on 22RV1 human PC cells (22RV1, pH 6, 24 h) is 12.5 µg/mL; in the series on 22RV1 human PC cells (22RV1, pH 7.4, 24 h) it was 12.5 µg/mL; in series [1] (DU145, pH 6, 24 h), 18.7 µg/mL; in series [1] (DU145, pH 7.4, 24 h) it was 25 µg/mL. The tumor weight result in series [2] (1 mg/kg intratumorally, 9 doses) is “significant reduction”. The PSA serum levels entry in series [2] (four weeks after first treatment) is recorded as “marked decrease”.
